Target: T1, Recombinant Human ENPP-2/Autotaxin (Homo sapiens, UniProt Q13822)
T1 construct: purchased R&D systems 5255-EN
Assay: LysoPLD activity measurement (autotaxin enzyme inhibition, choline release, TOOS reagent)
Format: biochemical
Conditions: LysoPLD inhibitory activity; substrate 14:0 LysoPC; absorbance at 555 nm
Procedure, shortened: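 Enzyme and compound were preincubated for 30 min before adding 14:0 LysoPC substrate, diluted to 300 μM, for 90 minutes at 37° C. The choline product was quantified colorimetrically with TOOS reagent. Wells without compound held 1% DMSO.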

| SMILES | IC50 [nM] |
| --- | --- |
| O=C(O)c1cccc(C2(n3c(=O)n(-c4ccc(C(=O)N5CC(O)C5)cc4)c4cc(Cl)ccc43)CC2)c1 [Example 128, 3-(1-(5-chloro-3-(4-(3-hydroxyazetidine-1-carbonyl)phenyl)-2-oxo-2,3-dihydro-1H-benzo[d]imidazol-1-yl)cyclopropyl)benzoic acid] | < 10 |
| O=C(O)c1cccc(C2(n3c(=O)n(-c4ccc(CC(=O)N5CCCCC5)cc4)c4cc(Cl)ccc43)CC2)c1 [Example 171, 3-(1-(5-chloro-2-oxo-3-(4-(2-oxo-2-(piperidin-1-yl)ethyl)phenyl)-2,3-dihydro-1H-benzo[d]imidazol-1-yl)cyclopropyl)benzoic acid] | < 10 |
| CC(C)C(=O)Nc1ccc(-n2c(=O)n(Cc3cccc(C(=O)O)c3)c3ccc(Cl)cc32)cc1 [Example 11, 3-((5-chloro-3-(4-isobutyramidophenyl)-2-oxo-2,3-dihydro-1H-benzo[d]imidazol-1-yl)methyl)benzoic acid] | 100 to 1000 |
| CN(C)c1ccc(-n2c(=O)n(Cc3cccc(C(=O)O)c3)c3ccc(Cl)cc32)cn1 [Example 79, 3-((5-chloro-3-(6-(dimethylamino)pyridin-3-yl)-2-oxo-2,3-dihydro-1H-benzo[d]imidazol-1-yl)methyl)benzoic acid] | 10 to 100 |
| O=C(O)c1cc(F)cc(C2(n3c(=O)n(-c4ccc(C(=O)N5CCCC5)cc4)c4cc(Cl)cnc43)CC2)c1 [Example 276, 3-(1-(6-chloro-2-oxo-1-(4-(pyrrolidine-1-carbonyl)phenyl)-1,2-dihydro-3H-imidazo[4,5-b]pyridin-3-yl)cyclopropyl)-5-fluorobenzoic acid] | < 10 |
| Cc1ccc2c(n1)n(-c1ccc(N(C)C)cc1)c(=O)n2Cc1cccc(C(=O)O)c1 [Example 168, 3-((3-(4-(dimethylamino)phenyl)-5-methyl-2-oxo-2,3-dihydro-1H-imidazo[4,5-b]pyridin-1-yl)methyl)benzoic acid] | 100 to 1000 |
| CCOc1ccc(-n2c(=O)n(Cc3cccc(C(=O)O)c3)c3ccc(Cl)cc32)cc1 [Example 20, 3-((5-chloro-3-(4-ethoxyphenyl)-2-oxo-2,3-dihydro-1H-benzo[d]imidazol-1-yl)methyl)benzoic acid] | 10 to 100 |
| O=C(O)c1cccc(Cn2c(=O)n(-c3cnn(CC4CCC4)c3)c3cc(Cl)ccc32)c1 [Example 91, 3-((5-chloro-3-(1-cyclobutylmethyl-1H-pyrazol-4-yl)-2-oxo-2,3-dihydro-1H-benzo[d]imidazol-1-yl)methyl)benzoic acid] | 100 to 1000 |
| O=C(O)c1cccc(C2(n3c(=O)n(-c4ccc(C(=O)N5CC(O)C5)cc4)c4cc(Cl)cnc43)CC2)c1F [Example 232, 3-(1-(6-chloro-1-(4-(3-hydroxyazetidine-1-carbonyl)phenyl)-2-oxo-1,2-dihydro-3H-imidazo[4,5-b]pyridin-3-yl)cyclopropyl)-2-fluorobenzoic acid] | < 10 |
| CN(C)C(=O)Cc1ccc(-n2c(=O)n(C3(c4cccc(C(=O)O)c4)CC3)c3ncc(Cl)cc32)cc1 [Example 226, 3-(1-(6-chloro-1-(4-(2-(dimethylamino)-2-oxoethyl)phenyl)-2-oxo-1,2-dihydro-3H-imidazo[4,5-b]pyridin-3-yl)cyclopropyl)benzoic acid] | 10 to 100 |
| O=C(O)c1cccc(Cn2c(=O)n(-c3ccc(N4CCC(F)(F)CC4)cc3)c3cc(Cl)ccc32)c1F [Example 118, 3-((5-chloro-3-(4-(4,4-difluoropiperidin-1-yl)phenyl)-2-oxo-2,3-dihydro-1H-benzo[d]imidazol-1-yl)methyl)-2-fluorobenzoic acid] | 10 to 100 |
| CC(=O)N1CCC2(CC1)CN(c1ccc(-n3c(=O)n(C4(c5cccc(C(=O)O)c5)CC4)c4ccc(Cl)cc43)cc1)C2 [Example 186, 3-(1-(3-(4-(7-acetyl-2,7-diazaspiro[3.5]nonan-2-yl)phenyl)-5-chloro-2-oxo-2,3-dihydro-1H-benzo[d]imidazol-1-yl)cyclopropyl)benzoic acid] | < 10 |
| O=C(O)c1cccc(Cn2c(=O)n(-c3ccc(C4CCOCC4)cc3)c3cc(Cl)ccc32)c1F [Example 108, 3-((5-chloro-2-oxo-3-(4-(tetrahydro-2H-pyran-4-yl)phenyl)-2,3-dihydro-1H-benzo[d]imidazol-1-yl)methyl)-2-fluorobenzoic acid] | 10 to 100 |
| O=C(O)c1cccc(C2(n3c(=O)n(-c4ccc(C5=CCOC5)cc4)c4cc(Cl)ccc43)CC2)c1 [Example 124, 3-(1-(5-chloro-3-(4-(2,5-dihydrofuran-3-yl)phenyl)-2-oxo-2,3-dihydro-1H-benzo[d]imidazol-1-yl)cyclopropyl)benzoic acid] | < 10 |
| CN(C)c1ccc(-n2c(=O)n(Cc3cccc(C(=O)O)c3)c3c(F)cc(Cl)cc32)cc1 [Example 66, 3-((5-chloro-3-(4-(dimethylamino)phenyl)-7-fluoro-2-oxo-2,3-dihydro-1H-benzo[d]imidazol-1-yl)methyl)benzoic acid] | 10 to 100 |

Continued, values first:

| IC50 [nM] | SMILES |
| --- | --- |
| < 10 | O=C(O)c1cccc(C2(n3c(=O)n(-c4ccc(C(=O)N5CCCCC5)cc4)c4cc(Cl)ccc43)CC2)c1F [Example 68, 3-(1-(5-chloro-2-oxo-3-(4-(piperidine-1-carbonyl)phenyl)-2,3-dihydro-1H-benzo[d]imidazol-1-yl)cyclopropyl)-2-fluorobenzoic acid] |
| 10 to 100 | CS(=O)(=O)Nc1ccc(-n2c(=O)n(Cc3cccc(C(=O)O)c3F)c3ccc(Cl)cc32)cc1 [Example 41, 3-((5-chloro-3-(4-(methylsulfonamido)phenyl)-2-oxo-2,3-dihydro-1H-benzo[d]imidazol-1-yl)methyl)-2-fluorobenzoic acid] |
| < 10 | CS(=O)(=O)c1ccc(-n2c(=O)n(C3(c4cccc(C(=O)O)c4)CC3)c3ccc(Cl)cc32)cc1 [Example 180, 3-(1-(5-chloro-3-(4-(methylsulfonyl)phenyl)-2-oxo-2,3-dihydro-1H-benzo[d]imidazol-1-yl)cyclopropyl)benzoic acid] |
| < 10 | O=C(O)c1cccc(C2(n3c(=O)n(-c4ccc(C(=O)N5CCCC5)cc4)c4cc(Cl)cnc43)CC2)c1F [Example 231, 3-(1-(6-chloro-2-oxo-1-(4-(pyrrolidine-1-carbonyl)phenyl)-1,2-dihydro-3H-imidazo[4,5-b]pyridin-3-yl)cyclopropyl)-2-fluorobenzoic acid] |
| < 10 | O=C(O)c1cccc(C2(n3c(=O)n(-c4ccc(C(=O)N5CCCC5)cc4)c4cc(Cl)ccc43)CC2)c1 [Example 63, 3-(1-(5-chloro-2-oxo-3-(4-(pyrrolidine-1-carbonyl)phenyl)-2,3-dihydro-1H-benzo[d]imidazol-1-yl)cyclopropyl)benzoic acid] |
| < 10 | O=C(O)c1cccc(C2(n3c(=O)n(-c4ccc(C(=O)N5CC6(CCOCC6)C5)cc4)c4cc(Cl)cnc43)CC2)c1 [Example 225, 3-(1-(1-(4-(7-oxa-2-azaspiro[3.5]nonane-2-carbonyl)phenyl)-6-chloro-2-oxo-1,2-dihydro-3H-imidazo[4,5-b]pyridin-3-yl)cyclopropyl)benzoic acid] |
| 10 to 100 | O=C(O)c1cccc(C2(n3c(=O)n(-c4ccc(N5CCOCC5)cc4)c4cc(Cl)cnc43)CC2)c1F [Example 230] |
| 100 to 1000 | O=C(O)c1cccc(Cn2c(=O)n(-c3ccc(-c4ccc(Cl)cc4)cc3)c3cc(Cl)ccc32)c1 [Example 7, 3-((5-chloro-3-(4′-chloro-[1,1′-biphenyl]-4-yl)-2-oxo-2,3-dihydro-1H-benzo[d]imidazol-1-yl)methyl)benzoic acid] |
| 10 to 100 | CN(C)c1ccc(-n2c(=O)n(C3(c4cccc(C(=O)O)c4)CC3)c3ccc(OC(F)(F)F)cc32)cc1 [Example 208, 3-(1-(3-(4-(dimethylamino)phenyl)-2-oxo-5-(trifluoromethoxy)-2,3-dihydro-1H-benzo[d]imidazol-1-yl)cyclopropyl)benzoic acid] |
| 10 to 100 | O=C(O)c1ccc(F)c(Cn2c(=O)n(-c3ccc(N4CCOCC4)cc3)c3c(F)c(Cl)ccc32)c1 [Example 50, 3-((5-chloro-4-fluoro-3-(4-morpholinophenyl)-2-oxo-2,3-dihydro-1H-benzo[d]imidazol-1-yl)methyl)-4-fluorobenzoic acid] |
| 100 to 1000 | O=C(O)c1cccc(Cn2c(=O)n(-c3ccc(-c4ccccc4)cc3)c3cc(Cl)ccc32)c1 [Example 15, 3-((3-([1,1′-biphenyl]-4-yl)-5-chloro-2-oxo-2,3-dihydro-1H-benzo[d]imidazol-1-yl)methyl)benzoic acid] |
| 10 to 100 | O=C(O)c1cccc(Cn2c(=O)n(-c3ccc(N4CCN(C(=O)C5CC5)CC4)cc3)c3cc(Cl)ccc32)c1 [Example 95, 3-((5-chloro-3-(4-(4-(cyclopropanecarbonyl)piperazin-1-yl)phenyl)-2-oxo-2,3-dihydro-1H-benzo[d]imidazol-1-yl)methyl)benzoic acid] |
| 100 to 1000 | O=C(O)c1cc(Cn2c(=O)n(-c3ccc(N4CCOCC4)cc3)c3c(F)c(Cl)ccc32)on1 [Example 198, 5-((5-chloro-4-fluoro-3-(4-morpholinophenyl)-2-oxo-2,3-dihydro-1H-benzo[d]imidazol-1-yl)methyl)isoxazole-3-carboxylic acid] |
| 10 to 100 | O=C(O)c1cc(F)cc(C2(n3c(=O)n(-c4ccc(C5CCOCC5)cc4)c4cc(Cl)cnc43)CC2)c1 [Example 273, 3-(1-(6-chloro-2-oxo-1-(4-(tetrahydro-2H-pyran-4-yl)phenyl)-1,2-dihydro-3H-imidazo[4,5-b]pyridin-3-yl)cyclopropyl)-5-fluorobenzoic acid] |
| 100 to 1000 | CCOc1ccc(-n2c(=O)n(Cc3cccc(C(=O)O)c3)c3ccc(Cl)cc32)cn1 [Example 75, 3-((5-chloro-3-(6-ethoxypyridin-3-yl)-2-oxo-2,3-dihydro-1H-benzo[d]imidazol-1-yl)methyl)benzoic acid] |
| 10 to 100 | O=C(O)c1cccc(Cn2c(=O)n(-c3ccc(N4CC(O)C4)cc3)c3c(F)c(Cl)ccc32)c1 [Example 53, 3-((5-chloro-4-fluoro-3-(4-(3-hydroxyazetidin-1-yl)phenyl)-2-oxo-2,3-dihydro-1H-benzo[d]imidazol-1-yl)methyl)benzoic acid] |

From patent US20260265265A1, “NOVEL BENZIMIDAZOLONE DERIVATIVE COMPOUND AS AUTOTAXIN INHIBITOR” (LG CHEM, LTD., priority 2023, published 2026)
